Measurements taken from ChEMBL document CHEMBL1201862, “PubChem BioAssay data set” (2004).
Calls of active or inactive are those of the source.

What was measured:
[1] = biological target: T1, Low molecular weight phosphotyrosine protein phosphatase (Homo sapiens, UniProt P24666); assay type: functional; settings: read-out: IC50_Mean
T1 sequence (P24666 whole entry): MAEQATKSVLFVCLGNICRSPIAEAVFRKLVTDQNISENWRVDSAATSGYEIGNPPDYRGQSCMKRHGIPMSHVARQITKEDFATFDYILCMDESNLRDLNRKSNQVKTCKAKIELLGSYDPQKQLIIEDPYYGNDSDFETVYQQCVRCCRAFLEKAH

[2] = biological target: T1, Low molecular weight phosphotyrosine protein phosphatase; assay type: functional; settings: read-out: IC50_Mean; remark: listed apart in the source
[3] = biological target: T2, Carboxy-terminal domain RNA polymerase II polypeptide A small phosphatase 1 (Homo sapiens, UniProt Q9GZU7); assay: CTDSP1 inhibitors, concentration-response, biochemical, absorbance readout, ultra-high-throughput screen actives (AID 540297); assay type: functional
T2 sequence (Q9GZU7 whole entry): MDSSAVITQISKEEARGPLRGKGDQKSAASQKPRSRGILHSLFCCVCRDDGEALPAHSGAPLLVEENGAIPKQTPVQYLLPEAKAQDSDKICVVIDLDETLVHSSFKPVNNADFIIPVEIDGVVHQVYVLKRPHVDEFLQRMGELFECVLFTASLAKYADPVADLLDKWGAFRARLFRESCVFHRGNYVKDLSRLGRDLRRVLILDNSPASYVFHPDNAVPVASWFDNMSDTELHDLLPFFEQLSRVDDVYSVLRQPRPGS

HeLa = assay: viability loss in HeLa cells – cell-based, ATP luminescence, cherry-pick samples, cytotoxicity control, dose response (AID 687004); assay type: functional; settings: Homo sapiens
[4] = OVCAR8 cell viability loss – plate reader, dry powder samples, PAX8 project, dose response (AID 743197); assay type: functional, cell-based; settings: OVCAR-8
[5] = OVCAR-3 cell viability loss – plate reader, dry powder samples, PAX8 inhibitor project, dose response (AID 743044); assay type: functional, cell-based
[6] = general cell-killing toxicity readout – plate reader, dry powder samples, cytotoxicity control for PAX8 inhibitor project, dose response (AID 743021); assay type: functional, cell-based
[7] = A2780 cell killing – plate reader, dry powder samples, cytotoxicity control, dose response (AID 743046); assay type: functional, cell-based
Paired box protein Pax-8 = Paired box protein Pax-8 (Homo sapiens, UniProt Q06710); assay: PAX8 transcriptional activity inhibition in RMG-I – RMG-I cells, luciferase, cherry-pick, dose response (AID 687027); assay type: functional, cell-based;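 further: luciferase reporter driven by Pax8 target thyroperoxidase promoter measured by SteadyGlo luminescence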
Chain of Paired box protein Pax-8 (Q06710 whole entry): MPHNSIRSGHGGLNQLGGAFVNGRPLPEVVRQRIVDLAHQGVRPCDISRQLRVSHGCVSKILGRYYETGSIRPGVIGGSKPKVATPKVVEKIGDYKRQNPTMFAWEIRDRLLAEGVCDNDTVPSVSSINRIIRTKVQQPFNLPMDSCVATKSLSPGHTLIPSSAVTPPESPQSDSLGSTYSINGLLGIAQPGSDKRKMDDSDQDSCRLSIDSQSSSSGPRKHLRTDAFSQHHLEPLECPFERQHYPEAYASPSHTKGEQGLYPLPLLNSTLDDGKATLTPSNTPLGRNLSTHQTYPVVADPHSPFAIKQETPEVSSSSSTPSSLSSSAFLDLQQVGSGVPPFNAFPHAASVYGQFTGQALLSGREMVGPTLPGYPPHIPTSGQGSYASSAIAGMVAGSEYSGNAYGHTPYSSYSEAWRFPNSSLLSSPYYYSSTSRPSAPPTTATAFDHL

Protein Wnt-3a = Protein Wnt-3a (Mus musculus, UniProt P27467); assay: SAR analysis of small molecule antagonists of Gli-SUFU in a Wnt3a luminescent reporter assay.; assay type: functional
Chain of Protein Wnt-3a (P27467 whole entry): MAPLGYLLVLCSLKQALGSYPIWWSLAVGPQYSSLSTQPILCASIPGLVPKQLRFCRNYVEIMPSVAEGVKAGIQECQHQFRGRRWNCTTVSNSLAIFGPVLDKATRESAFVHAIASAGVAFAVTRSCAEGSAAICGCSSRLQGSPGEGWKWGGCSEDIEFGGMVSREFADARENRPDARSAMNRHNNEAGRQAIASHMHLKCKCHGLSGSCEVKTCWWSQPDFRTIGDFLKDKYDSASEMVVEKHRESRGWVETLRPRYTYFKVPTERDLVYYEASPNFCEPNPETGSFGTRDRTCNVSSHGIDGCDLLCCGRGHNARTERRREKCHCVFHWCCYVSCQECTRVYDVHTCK

[8] = Trypanosoma cruzi growth suppression in host cells – NIH3T3 host cells, beta-gal luminescence, confirmation (AID 2044); assay type: functional, cell-based;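 further: intracellular parasites grown in NIH/3T3 mouse fibroblasts as host cells; luminescent beta-galactosidase reporter signal from transgenic T. cruzi replicating inside host cells; inhibitors lower the luminescence signal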
cells = assay type: functional, cell-based; settings: HEK-CNG
[9] = NIH3T3 cell viability loss – ATP luminescence, mouse fibroblasts, counter-screen, dose response (AID 2010); assay type: functional, cell-based;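 further: cells exposed to compound for about 90 hours before reading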
Galanin receptor type 3 = Galanin receptor type 3 (Homo sapiens, UniProt O60755); assay: Fluorescence-based cell-based primary high throughput dose response assay to identify antagonists of the Galanin Receptor 3 (GalR3).; assay type: functional
Chain of Galanin receptor type 3 (O60755 whole entry): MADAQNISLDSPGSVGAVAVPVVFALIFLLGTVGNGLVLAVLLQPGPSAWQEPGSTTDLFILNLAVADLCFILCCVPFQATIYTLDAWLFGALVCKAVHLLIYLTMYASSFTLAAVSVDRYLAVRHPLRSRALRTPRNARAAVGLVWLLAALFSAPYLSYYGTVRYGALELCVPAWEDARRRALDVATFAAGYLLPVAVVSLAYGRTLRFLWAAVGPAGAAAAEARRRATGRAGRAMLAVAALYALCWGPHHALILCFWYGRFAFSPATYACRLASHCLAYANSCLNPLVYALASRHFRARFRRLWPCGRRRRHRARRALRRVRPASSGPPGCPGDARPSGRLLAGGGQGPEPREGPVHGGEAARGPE

Caspase-6 = Caspase-6 (Homo sapiens, UniProt P55212); assay: inhibition of CASP6 peptide cleavage – biochemical, VEID-R110 fluorescence, cherry-pick, dose response (AID 720632)
Chain of Caspase-6 (P55212 24-179 limits assumed): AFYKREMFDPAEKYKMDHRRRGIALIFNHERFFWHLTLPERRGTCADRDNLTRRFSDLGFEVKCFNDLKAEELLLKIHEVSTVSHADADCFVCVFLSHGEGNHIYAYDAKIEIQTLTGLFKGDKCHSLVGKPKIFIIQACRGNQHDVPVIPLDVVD
Chain of Caspase-6 (P55212 194-293 limits assumed): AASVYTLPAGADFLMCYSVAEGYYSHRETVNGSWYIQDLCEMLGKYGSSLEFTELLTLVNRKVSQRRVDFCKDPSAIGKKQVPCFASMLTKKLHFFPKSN

[10] = biological target: 5-hydroxytryptamine receptor 2A (Mus musculus, UniProt P35363); assay type: functional, cell-based;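 further: CHO-K1 cells with tagged receptor and beta-arrestin; agonist potency measured as compound-induced activation of the receptor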
Chain of 5-hydroxytryptamine receptor 2A (P35363 whole entry): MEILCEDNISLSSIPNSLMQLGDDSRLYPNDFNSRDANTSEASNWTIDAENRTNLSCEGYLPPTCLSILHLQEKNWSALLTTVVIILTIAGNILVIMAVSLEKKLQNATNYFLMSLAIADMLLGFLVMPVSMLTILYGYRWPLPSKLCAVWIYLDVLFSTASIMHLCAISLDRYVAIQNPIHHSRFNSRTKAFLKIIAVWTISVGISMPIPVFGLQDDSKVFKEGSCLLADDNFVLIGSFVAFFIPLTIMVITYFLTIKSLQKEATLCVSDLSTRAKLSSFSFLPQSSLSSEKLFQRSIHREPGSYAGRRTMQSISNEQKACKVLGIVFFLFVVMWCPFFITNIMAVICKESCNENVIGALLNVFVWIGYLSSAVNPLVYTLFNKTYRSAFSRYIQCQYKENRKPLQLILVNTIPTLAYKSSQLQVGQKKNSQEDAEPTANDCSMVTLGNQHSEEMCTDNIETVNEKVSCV

Mu-type opioid receptor = Mu-type opioid receptor (Homo sapiens, UniProt P35372); assay type: functional, cell-based;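 further: U2OS cells with beta-arrestin recruitment to OPRM1 by beta-gal complementation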
Chain of Mu-type opioid receptor (P35372 whole entry): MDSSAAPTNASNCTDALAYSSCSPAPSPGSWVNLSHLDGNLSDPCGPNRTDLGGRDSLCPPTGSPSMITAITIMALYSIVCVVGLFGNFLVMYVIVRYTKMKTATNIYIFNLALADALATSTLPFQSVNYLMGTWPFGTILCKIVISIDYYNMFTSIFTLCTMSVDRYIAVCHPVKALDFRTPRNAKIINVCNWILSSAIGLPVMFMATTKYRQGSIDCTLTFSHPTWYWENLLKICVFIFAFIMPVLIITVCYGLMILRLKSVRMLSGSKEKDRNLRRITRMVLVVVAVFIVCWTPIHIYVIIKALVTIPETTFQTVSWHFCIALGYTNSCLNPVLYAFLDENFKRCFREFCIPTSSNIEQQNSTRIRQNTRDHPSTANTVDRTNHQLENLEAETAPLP

Albumin = Albumin (Bos taurus, UniProt P02769); assay: Counterscreen for inhibitors of T-cell receptor (TCR)-CD3 interaction: Fluorescence-based biochemical high throughput dose response assay to identify inhibitors of T-cell receptor (TCR)-CD3 interaction using a TAMRA-labeled BSA probe.; assay type: functional
Chain of Albumin (P02769 whole entry): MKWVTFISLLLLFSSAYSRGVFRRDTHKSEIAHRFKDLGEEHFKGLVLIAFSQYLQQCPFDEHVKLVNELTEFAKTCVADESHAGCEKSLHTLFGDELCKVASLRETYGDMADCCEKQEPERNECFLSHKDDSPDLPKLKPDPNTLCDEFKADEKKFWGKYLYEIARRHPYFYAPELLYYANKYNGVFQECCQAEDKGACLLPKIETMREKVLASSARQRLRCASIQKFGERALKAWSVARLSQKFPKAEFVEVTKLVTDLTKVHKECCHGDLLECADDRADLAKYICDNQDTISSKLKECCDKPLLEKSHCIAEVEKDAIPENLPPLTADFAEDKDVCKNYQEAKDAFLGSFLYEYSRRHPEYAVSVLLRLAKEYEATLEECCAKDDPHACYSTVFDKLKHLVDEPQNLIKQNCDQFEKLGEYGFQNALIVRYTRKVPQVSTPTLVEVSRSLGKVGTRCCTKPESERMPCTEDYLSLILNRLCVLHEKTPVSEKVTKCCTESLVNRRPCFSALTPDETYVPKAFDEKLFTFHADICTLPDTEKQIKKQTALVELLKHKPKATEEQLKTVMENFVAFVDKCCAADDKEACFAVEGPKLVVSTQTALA

[11] = OVCAR4 cell viability loss – plate reader, dry powder, SA11, cytotoxicity control for PAX8 inhibitor project, dose response (AID 743150); assay type: functional, cell-based; settings: OVCAR-4
[12] = HIV-1 AD8 envelope cell-cell fusion blockers – cherry-pick, dose response (AID 652062); assay type: functional, cell-based;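 further: luciferase signal from cell-cell fusion driven by HIV-1 clade B AD8 Env; potency is for inhibitors of fusion seen as a drop in luminescence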
[13] = growth inhibition of PfATP4-mutant resistant parasites – NITD609-resistant line, SYBR Green, dry powder, dose response (AID 1159571); assay type: functional, cell-based;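 further: parasites synchronized at ring stage by sorbitol before testing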
[14] = Dd2 malaria parasite growth inhibition potency – SYBR Green, dry powder samples, dose response (AID 1159566); assay type: functional, cell-based;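 further: potency for growth inhibition with lower SYBR green DNA signal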
[15] = toxicity to human hepatoma HepG2 cells – cell-based, cherry-picked samples, cytotoxicity control, dose response (AID 1159577); assay type: functional
[16] = PAX5 cellular inhibition readout – cell-based, plate reader, dry powder samples, selectivity assay for PAX8 inhibitor project, dose response (AID 743047); assay type: functional;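 further: HEK293 cells carrying a Pax5 driven CD19 promoter luciferase reporter; potency of inhibitors that lower reporter luminescence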
[17] = PAX8-dependent cell viability loss – plate reader, dry powder, dose response (AID 743049); assay type: functional, cell-based
[18] = blockers of HIV-1 ZM109 envelope-driven cell-cell fusion – HeLa effector, CEM target cells, luciferase, cherry-pick, dose response (AID 652058); assay type: functional, cell-based;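 further: luciferase signal from HIV-1 Env mediated cell-cell fusion of effector and target cells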
[19] = growth inhibition of yeast DHODH-expressing 3D7 parasites – SYBR Green, dry powder samples, dose response (AID 1159570); assay type: functional, cell-based;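 further: parasite growth measured after 72 hours of compound exposure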
[20] = COV434 cell viability loss – plate reader, dry powder, SA7, cytotoxicity control for PAX8 inhibitor project, dose response (AID 743145); assay type: functional, cell-based
[21] = inhibitors acting on PAX2 in cells – cell-based, plate reader, dry powder samples, selectivity assay for PAX8 inhibitor project, dose response (AID 743048); assay type: functional;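 further: HEK293 cells carrying a WT1 promoter luciferase reporter driven by expressed Pax2; potency is for inhibition of Pax2 driven reporter signal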
[22] = blockers of HIV-1 envelope-mediated cell-cell fusion – cherry-pick, dose response (AID 652057); assay type: functional, cell-based
[23] = P. falciparum Dd2 growth inhibitors, dose response, SYBR Green, cherry-picked samples (AID 1159567); assay type: functional, cell-based
[24] = Luminescence Cell-Based Dose Retest to Confirm Inhibitors of Cancer Stem Cells. [Related pubchem assays (depositor defined):AID2717, AID2721]; assay type: functional; settings: Homo sapiens
[25] = biological target: T3, Probable nicotinate-nucleotide adenylyltransferase (Staphylococcus aureus (strain N315), UniProt P65502); assay type: functional, Staphylococcus aureus subsp. aureus N315;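 on IC50 Mean: confirmatory dose-response retesting of NadD inhibitor hits first found in an ultra-high-throughput screen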
T3 sequence (P65502 whole entry): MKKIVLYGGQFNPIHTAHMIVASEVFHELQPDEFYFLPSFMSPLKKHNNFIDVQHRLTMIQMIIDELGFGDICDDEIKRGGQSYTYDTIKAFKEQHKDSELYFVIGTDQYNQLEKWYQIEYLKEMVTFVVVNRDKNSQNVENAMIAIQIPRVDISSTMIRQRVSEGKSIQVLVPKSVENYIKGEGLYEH

[26] = viability loss of HMLE_sh_eGFP cells – cell-based, luminescence, counter-screen for HMLE_sh_ECad selective toxicity project, dose response (AID 463074); assay type: functional, Homo sapiens;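 further: HMLE human mammary epithelial cells expressing control shRNA against eGFP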
[27] = biological target: T3, Probable nicotinate-nucleotide adenylyltransferase; assay type: functional, Staphylococcus aureus subsp. aureus N315; settings: read-out: IC50_Mean
[28] = biological target: Heat shock protein HSP 90-alpha (Homo sapiens, UniProt P07900); assay type: functional, organism-based
Interleukin-8 = biological target: T4, Interleukin-8 (Homo sapiens, UniProt P10145); assay: Dose Response confirmation of uHTS small molecule hits for cystic fibrosis induced NFkb Inhibitors in a PAF-induced IL8 counterscreen.; assay type: functional; settings: read-out: IC50_Mean
T4 sequence (P10145 whole entry): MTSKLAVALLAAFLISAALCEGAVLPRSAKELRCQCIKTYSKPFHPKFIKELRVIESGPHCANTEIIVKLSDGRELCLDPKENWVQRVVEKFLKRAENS

[29] = T. cruzi growth inhibition in host cells, dose response, cell-based, plate reader, dry powder, set 2 (AID 652275); assay type: functional

**Q.** Which IC50 [1] does the source give for `O=C(Nc1nc2ccsc2c(=O)s1)c1ccc(F)cc1` here?
**A.** 11 µM (active)

**Q.** What about the IC50 [2] of the same molecule?
**A.** 32 µM (inactive)

**Q.** And the IC50 [3]?
**A.** 5.11 µM (active)

**Q.** For `Cc1ccc(-n2ncc3c(SCC(N)=O)ncnc32)cc1C`, which AC50 (HeLa) is on record?
**A.** > 52 µM (inactive)

**Q.** Which AC50 [4] does the source give for `COc1ccccc1C#Cc1ccc([C@H]2[C@H](C#N)N(C(=O)C3CC3)[C@H]2CO)cc1` here?
**A.** 10.7 µM (active)

**Q.** What about the AC50 [5] of the same molecule?
**A.** 15.1 µM (active)

**Q.** And the AC50 [6]?
**A.** 1.68 µM (active)

**Q.** What about the AC50 [7] of the same molecule?
**A.** 0.698 µM (active)

**Q.** What about the AC50 (Paired box protein Pax-8) of the same molecule?
**A.** 6.37 µM (active)

**Q.** With `O=C(Nc1cc(N2CCCCC2)ncn1)c1cccs1` as the molecule, how does the IC50 (Protein Wnt-3a) read?
**A.** > 21.8 µM (inactive)

**Q.** For `C[C@@H]1CCCCO[C@H](CN(C)Cc2ccc3c(c2)OCO3)[C@H](C)CN([C@H](C)CO)C(=O)c2cc(NC(=O)Nc3cccc4ccccc34)ccc2O1`, which AC50 (HeLa) is on record?
**A.** 20.1 µM (active)

**Q.** For `O=C(CN1CCC(c2nc3ccccc3s2)CC1)NCc1cccs1`, which EC50 [8] is on record?
**A.** 0.646 µM (active)

**Q.** And the EC50 (cells)?
**A.** > 29.9 µM (inactive)

**Q.** What about the EC50 [9] of the same molecule?
**A.** > 30 µM (not active)

**Q.** What about the IC50 (Galanin receptor type 3) of the same molecule?
**A.** 1.39 µM (active)

**Q.** With `O=C(Nc1cccc(C(F)(F)F)c1)c1cccc(NS(=O)(=O)c2ccc(O)c(C(=O)O)c2)c1` as the molecule, how does the AC50 (Caspase-6) read?
**A.** 40.3 µM (active)

**Q.** What does the source list for `Fc1ccc(F)c(CN2CCN(c3ncccn3)CC2)c1`?
**A.** EC50 [10]: 0.323 µM (active); EC50 (Mu-type opioid receptor): 92.4 µM (inactive)

**Q.** Which IC50 (Albumin) does the source give for `CNC(=S)NNC(=O)c1cccn(Cc2ccccc2)c1=O` here?
**A.** > 94.2 µM (inactive)

**Q.** With `COc1cccc(C#Cc2ccc([C@H]3[C@@H](CO)N(C(=O)C4CCCC4)[C@H]3C#N)cc2)c1` as the molecule, how does the AC50 [11] read?
**A.** 37.9 µM (active)

**Q.** And the AC50 [12]?
**A.** 20 µM (active)

**Q.** What about the AC50 [13] of the same molecule?
**A.** 0.454 µM (active)

**Q.** What about the AC50 [14] of the same molecule?
**A.** 0.212 µM (active)

**Q.** And the AC50 [15]?
**A.** > 39 µM (inactive)

**Q.** And the AC50 [16]?
**A.** 30.1 µM (active)

**Q.** What about the AC50 [17] of the same molecule?
**A.** 5.77 µM (active)

**Q.** What about the AC50 [18] of the same molecule?
**A.** 17 µM (active)

**Q.** What about the AC50 [19] of the same molecule?
**A.** 0.409 µM (active)

**Q.** And the AC50 [20]?
**A.** 0.00447 µM (active)

**Q.** And the AC50 [21]?
**A.** 30.8 µM (active)

**Q.** And the AC50 [22]?
**A.** 17.8 µM (active)

**Q.** What about the AC50 [23] of the same molecule?
**A.** 0.997 µM (active)

**Q.** And the AC50 (Paired box protein Pax-8)?
**A.** 3.15 µM (active)

**Q.** For `COc1cc(/C=c2\sc3n(c2=O)C(c2ccccc2)C(c2ccccc2)=NN=3)ccc1O` (stereo not given), which AC50 [24] is on record?
**A.** 4.58 µM (active)

**Q.** And the IC50 [25]?
**A.** 19.7 µM (active)

**Q.** What about the AC50 [26] of the same molecule?
**A.** 38.5 µM (active)

**Q.** And the IC50 [27]?
**A.** 57.3 µM (active)

**Q.** Which AC50 [28] does the source give for `Cc1ccc(-c2onc3ccc(C(=O)/C=C/N(C)C)cc23)cc1` here?
**A.** 4.11 µM (active)

**Q.** And the IC50 (Interleukin-8)?
**A.** 17.9 µM (inactive)

**Q.** For `CC(C)N1C[C@H](CN(C)Cc2ccc(Cl)cc2)Oc2c(NC(=O)c3ccncc3)cccc2C1=O`, which AC50 [29] is on record?
**A.** 0.00393 µM (active)
